Patent US20260327240A1, “1,4-CINEOLE DERIVATIVE AND INTERMEDIATE THEREOF, HERBICIDE CONTAINING SAID DERIVATIVE AS ACTIVE INGREDIENT, METHOD FOR USING HERBICIDE, AND METHOD FOR PREPARING AGROCHEMICAL COMPOSITION” (HOKKO CHEMICAL INDUSTRY CO., LTD., priority 2023, published 2026)

Key:
Format in all cases: in vivo
Amaranthus viridis = assay: Test Example 3: herbicidal effect test by soil application in upland field; settings: Amaranthus viridis, 1 day after sowing, 120 g per 10 ares, 14 days after application, read-out: weed inhibition rate
Method in brief: (§1)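 Twenty seeds per weed species were mixed into the top 1 cm of alluvial loam in pots. One day after sowing, an emulsifiable concentrate diluted in water was sprayed on the soil surface at 120 g active ingredient per 10 ares.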

Digitaria ciliaris [1] = assay: as above; settings: Digitaria ciliaris, 1 day after sowing, 120 g per 10 ares, 14 days after application, read-out: weed inhibition rate
Method in brief: as §1

Echinochloa crus-galli [2] = assay: as above; settings: Echinochloa crus-galli, 1 day after sowing, 120 g per 10 ares, 14 days after application, read-out: weed inhibition rate
Method in brief: as §1

Digitaria ciliaris [3] = assay: Test Example 4: herbicidal effect test by stem and leaf treatment in upland field; settings: Digitaria ciliaris, 7 days after sowing, 120 g per 10 ares, 14 days after application, read-out: weed inhibition rate
Method in brief: (§2)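 Weeds sown in alluvial loam and sprayed 7 days after sowing with a water-diluted emulsifiable concentrate at 100 L per 10 ares, equivalent to 120 g active ingredient per 10 ares.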

Echinochloa crus-galli [4] = assay: as above; settings: Echinochloa crus-galli, 7 days after sowing, 120 g per 10 ares, 14 days after application, read-out: weed inhibition rate
Method in brief: as §2

[5] = test system: Echinochloa crus-galli var. formosensis; assay: Test Example 5: herbicidal effect test by soil application in paddy rice; settings: Echinochloa crus-galli, 336 h, 7.5 g per 10 ares, 14 days after application, read-out: weed inhibition rate
Experimental: Herbicidal Effect Test by Soil Application in Paddy Rice
(§3) Wagner pots with an area of […] were filled with paddy soil, followed by addition of water and incorporation of chemical fertilizer (N:P:K=16:16:16), after which puddling was performed. After that, seeds of Echinochloa crus-galli var. formosensis, broad-leaved weeds (Lindemia pyxidaria, and Monochoria vaginalis), and Scirpus juncoides were sown at a depth of 0 cm to 1 cm, 30 seeds each. Immediately after sowing, the pots were flooded and a water depth of approximately 3 cm was maintained. Subsequent management was conducted in a glass greenhouse. Immediately thereafter, an emulsifiable concentrate prepared according to Formulation Example 5 using the compound shown below was diluted with water, and a specified amount of the diluted solution was applied by dropper. The amount of the active ingredient to be applied was equivalent to 7.5 g per 10 ares.
The present test was conducted in duplicate for each chemical concentration group, and the herbicidal effect was evaluated 14 days after chemical application using the same criteria as in Test Example 1.

[6] = test system: Echinochloa crus-galli var. formosensis; assay: Test Example 6: herbicidal effect test by application during growth period of paddy rice; settings: Echinochloa crus-galli, 7 days after sowing, 7.5 g per 10 ares, 14 days after application, read-out: weed inhibition rate
Experimental: Herbicidal Effect Test by Application During Growth Period of Paddy Rice
as §3, with “Seven days after sowing,” for “Immediately thereafter,”, “ares. The test was conducted in duplicate for each chemical concentration group, and the herbicidal effect was evaluated 14 days after chemical application using the same criteria as in Test Example 1.” for “ares.”

Digitaria ciliaris [7] = assay: Test Example 7: herbicidal effect test by soil application in upland field; settings: Digitaria ciliaris, 1 day after sowing, 7.5 g per 10 ares, 14 days after application, read-out: weed inhibition rate
Experimental: (§4) Herbicidal Effect Test by Soil Application in Upland Field
(§5) Pots with an area of 36 cm^2 were filled with upland soil (alluvial loam), twenty seeds each of weeds of Digitaria ciliaris, Echinochloa crus-galli, Chenopodium album, and Amaranthus viridis were uniformly mixed with the top 1 cm layer of soil and the surface was lightly pressed down. One day after sowing, an emulsifiable concentrate prepared according to Formulation Example 5 using the compound shown below was diluted with water, and the diluted solution was sprayed onto the soil surface at a rate of 100 liters per 10 ares. The amount of the active ingredient to be applied was equivalent to 7.5 g per 10 ares. Fourteen days after chemical application, the herbicidal effect was evaluated according to the same criteria as in Test Example 1.

Echinochloa crus-galli [8] = assay: as above; settings: Echinochloa crus-galli, 1 day after sowing, 7.5 g per 10 ares, 14 days after application, read-out: weed inhibition rate
Experimental: as §4, §5

Echinochloa crus-galli [9] = assay: Test Example 8: herbicidal effect test by stem and leaf treatment in upland field; settings: Echinochloa crus-galli, 7 days after sowing, 7.5 g per 10 ares, 14 days after application, read-out: weed inhibition rate
Experimental: Herbicidal Effect Test by Stem and Leaf Treatment in Upland Field
as §5, with “Seven days” for “One day”

CCOC(C)O[C@H]1C[C@]2(C)O[C@@]1(C(C)C)C[C@H]2OCc1ccccc1F (stereo partly drawn) [1-213, (1R,2S,4S,5R)-2-(1-ethoxyethoxy)-5-((2-fluorobenzyl)oxy)-1-isopropyl-4-methyl-7-oxabicyclo[2.2.1]heptane]
≥ 80%: inhibition at 1200 g/ha (Amaranthus viridis) | inhibition at 1200 g/ha (Digitaria ciliaris [1]) | inhibition at 1200 g/ha (Echinochloa crus-galli [2]) | inhibition at 1200 g/ha (Digitaria ciliaris [3]) | inhibition at 1200 g/ha (Echinochloa crus-galli [4]) | inhibition at 75 g/ha [5] | inhibition at 75 g/ha [6] | inhibition at 75 g/ha (Digitaria ciliaris [7]) | inhibition at 75 g/ha (Echinochloa crus-galli [8]) | inhibition at 75 g/ha (Echinochloa crus-galli [9])
